Experimental data as given in patent publication US20080262228A1, “Metabolites of 5-fluoro-8- quinoline and methods of preparation and uses thereof” (Wyeth, priority 2006, published 2008).
Structures can show the parent of a compound that is named as a salt.

Experiment: In vivo metabolism of [14C]COMPOUND I in Sprague-Dawley rats, single oral 5 mg/kg dose
Design: species or system rat
Settings: 5 mg/kg oral

percent of total brain radioactivity (female rats, between 1 and 3 hr post-dose): 11.3-13.6% | percent of total brain radioactivity (male rats, between 1 and 6 hr post-dose): 9.0-9.4% | percent of total radioactivity in the fecal extract (male rats, pooled 0-24 hr feces): 15.1% | Source (rats, P, plasma, F, feces, B, brain): B, F
Structure (SMILES): Oc1cc(N2CCN(C3CCN(c4ccc(F)c5cccnc45)CC3)CC2)c2ncccc2c1 [Metabolite M21, 8-{4-[1-(5-fluoroquinolin-8-yl)piperidin-4-yl]piperazin-1-yl}quinolin-6-ol trihydrochloride]
